The text below walks through data of publication PMC10313808, “Lipoxygenase inhibitory synthetic derivatives of methyl gallate regulate gene expressions of COX-2 and cytokines to reduce animal model arthritis” (Scientific Reports, 2023).

For this assay, the target named is T1, LOX (Glycine max, UniProt P08170).
T1 construct: purchased Sigma (Sigma-Aldrich, UK)
T1 sequence (P08170 1-839): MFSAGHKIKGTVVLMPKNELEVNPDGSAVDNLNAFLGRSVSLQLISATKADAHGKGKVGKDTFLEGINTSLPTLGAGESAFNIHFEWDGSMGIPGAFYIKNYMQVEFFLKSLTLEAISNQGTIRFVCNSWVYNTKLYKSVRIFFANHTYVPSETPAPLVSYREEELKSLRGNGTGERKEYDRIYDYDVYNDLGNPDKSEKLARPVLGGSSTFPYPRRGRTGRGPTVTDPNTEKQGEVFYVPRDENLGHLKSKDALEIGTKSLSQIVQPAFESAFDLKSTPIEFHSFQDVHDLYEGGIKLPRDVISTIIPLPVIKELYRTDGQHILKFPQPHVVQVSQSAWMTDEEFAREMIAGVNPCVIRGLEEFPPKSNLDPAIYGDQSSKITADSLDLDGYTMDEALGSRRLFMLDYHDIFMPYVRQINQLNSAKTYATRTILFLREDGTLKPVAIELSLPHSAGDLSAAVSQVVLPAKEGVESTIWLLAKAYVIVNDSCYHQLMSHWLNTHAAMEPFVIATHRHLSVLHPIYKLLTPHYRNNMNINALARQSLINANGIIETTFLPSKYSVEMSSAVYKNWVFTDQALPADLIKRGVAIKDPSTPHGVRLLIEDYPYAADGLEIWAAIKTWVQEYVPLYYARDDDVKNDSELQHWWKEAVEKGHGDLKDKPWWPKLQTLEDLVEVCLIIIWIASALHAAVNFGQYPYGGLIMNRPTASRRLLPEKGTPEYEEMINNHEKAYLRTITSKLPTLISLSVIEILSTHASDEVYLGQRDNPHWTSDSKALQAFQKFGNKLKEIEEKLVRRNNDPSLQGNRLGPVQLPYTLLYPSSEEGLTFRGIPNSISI
The assay is described as follows: Fluorescence quenching studies. In kind it is binding. Particulars: 296 K, pH 9. The source says: To analyze the type of mechanism, the data of fluorescence of LOX was plotted, as relative fluorescence intensity (F0/F), against MGSDs. Here F and F0 are the fluorescence intensity in the presence and absence of MGSDs respectively. The Stern–Volmer constants were obtained from the plot by linear regression using the expression: F0/F=1+KsvQ.
Ksv is the Stern–Volmer constant and [Q] is the respective concentration of derivatives. Ksv which depicts the binding affinity between the fluorophore (protein) and quencher (ligand), were obtained from the slopes of the plot (Supplementary Fig. 15). […] The Fluorescence quenching data provided information about the binding constant (K), the number of binding sites (n), and the values could be arrived by applying the equation. Log F0-F/F=log K+nlogQ.
The Fluoromax-4 spectrophotometer (Spectra-NanoLED source 278) was used for studying fluorescence quenching of the compound. Bandwidth set at 5 nm for both excitation and emission spectra. The wavelength was set for excitation at 280 nm and the emission was recorded at 290–450 nm using 1.0 cm cell at 296 K temperature. The LOX with a concentration of 7 μM, dissolved in borate buffer at pH 9 and ligands at the concentrations of 35, 70, 105, 140, 175, 210, 245 and 280 μM were used for the experiment.

As for `O=C(O)COc1cc(C(=O)O)cc(OCC(=O)O)c1OCC(=O)O` [MGSD 1, 2,2′,2″-((5-carboxybenzene-1,2,3-triyl)tris(oxy)) tri acetic acid], for the setting “read-out: Binding constant (K) (converted)”, the Kd was 752 µM. For the setting “Stern–Volmer”, the “Quenching constant (Ksv)” value came to 6200 M⁻¹.
